This assay deals with p300 (Homo sapiens, UniProt Q09472). In kind it is binding.

Molecules are shown by their SMILES.

Chain of p300 (Q09472 323-423): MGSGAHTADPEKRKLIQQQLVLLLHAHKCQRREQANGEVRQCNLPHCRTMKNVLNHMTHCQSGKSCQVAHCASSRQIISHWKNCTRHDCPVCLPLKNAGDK
Chain of p300 (Q16665 786-826 partner): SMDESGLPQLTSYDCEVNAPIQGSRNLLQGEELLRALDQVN

Regarding `COc1ccc(C2(O)N=C3N=CC=C4c5ccccc5N=C2N43)cc1` (racemic) [compound 1, eudistidine A], the IC50 is ~75 µM.

As usually defined, the IC50 is the concentration that inhibits the measured activity by half. Read a high IC50 as a need for much substance.
